Data as given in patent US20260193180A1, “AUTOPHAGY INDUCING COMPOUNDS AND USES THEREOF” (SAMSARA THERAPEUTICS INC., priority 2022, published 2026).

What was measured:
[1] = tested on: dopaminergic Tyrosine hydroxylase (TH)-positive neurons; experiment: Cellular model of Parkinson's disease, MPP+ injury of primary mesencephalic culture; format: cell-based, rat; details: 0.5 μM, MPP+ 4 μM for 48 h
Procedure: This model (supplied by Neuro-Sys SAS, France) is based on a primary culture of dopaminergic Tyrosine hydroxylase (TH)-positive neurons injured with the dopaminergic neurons-specific toxin (DA-toxin) 1-methyl-4-phenyl-1,2,3,6 tetrahydropyridine (MPTP) (Dauer and Przedborski, 2003). Any substances reducing DA-toxin neurotoxicity may be useful as a new therapeutic agent for the treatment or prevention of PD.
Primary culture of mesencephalic neurons: Rat dopaminergic neurons were cultured as described by Visanji et al., 2008 and Callizot et al., 2019. Briefly, pregnant female rat (Wistar) of 15 days of gestation were killed using a deep anesthesia with CO2 chamber and a cervical dislocation. The midbrains obtained from 15-day-old rat embryos (Janvier, France) were dissected under a microscope. The embryonic midbrains will be removed and placed in ice-cold medium of Leibovitz (L15) containing 2% of Penicillin-Streptomycin (PS) and 1% of bovine serum albumin (BSA). The ventral portion of the mesencephalic flexure, a region of the developing brain rich in dopaminergic neurons, was used for the cell preparations.
The midbrains were dissociated by trypsinisation for 20 min at 37° C. (solution at a final concentration of 0.05% trypsin and 0.02% EDTA). The reaction was stopped by the addition of Dulbecco's modified Eagle's medium (DMEM) containing DNAase I grade II (0.5 mg/mL) and 10% of foetal calf serum (FCS). Cells were then mechanically dissociated by 3 passages through a 10 ml pipette. Cells were then centrifuged at 180×g for 10 min at +4° C. on a layer of BSA (3.5%) in L15 medium. The supernatant was discarded and the cell pellets re-suspended in a defined culture medium consisting of Neurobasal supplemented with B27 (2%), L-glutamine (2 mM) and 2% of PS solution and 10 ng/mL of Brain-derived neurotrophic factor (BDNF) and 1 ng/mL of Glial-Derived Neurotrophic Factor (GDNF). Viable cells were counted in a Neubauer cytometer using the trypan blue exclusion test. […]

[2] = Bioavailability / brain exposure in CD1 mice; format: in vivo; details: dose of 30 mg/kg
Procedure: The compounds have good properties for oral dosing and readily cross the blood brain barrier. For example, in CD1 mice, Compound 9 has a maximum concentration in brain plasma of 5067 ng/ml after 30 minutes at a dose of 30 mg/kg. Compound 12 has a maximum concentration in brain plasma of 5853 ng/ml after 8 hours at a dose of 30 mg/kg.

Prp-TDP43 mice = experiment: Mouse model of Amyotrophic Lateral Sclerosis (ALS); details: 30 mg/kg once per day, oral gavage; for increase in mean CAMP amplitude compared to the vehicle controlled group: sciatic nerve

Q: Which “neurite network of TH positive neurons” value [1] does the source give for CCOc1ccc(Cl)cc1CN1CC[C@@H](CN)C1.Cl [Compound 12, (S)-(1-(5-chloro-2-ethoxybenzyl)pyrrolidin-3-yl)methanamine hydrochloride] here?
A: Its value is “protected”.

Q: And the “neuronal survival (total number of TH positive neurons)” value [1]?
A: The value was “improved”.

Q: And the “α-Synuclein aggregation in dopaminergic neurons” value [1]?
A: Its value is “reduced”.

Q: What about the “maximum concentration in brain plasma” value [2] of the same compound?
A: The value was 5853 ng/mL.

Q: What about the “time of maximum concentration in brain plasma” value [2] of the same compound?
A: Its value is 8 h.

Q: What about the “body weight compared to the vehicle group” value (Prp-TDP43 mice) of the same compound?
A: The value was “increase”.

Q: And the mortality (Prp-TDP43 mice; 60 days)?
A: The mortality was “No mortality was observed”.

Q: And the pathological clinical signs (Prp-TDP43 mice; 60 days)?
A: Its pathological clinical signs is “No pathological clinical sign was observed”.

Q: What about the “decrease in mean NfL concentration (plasma) compared to the vehicle controlled group” value (Prp-TDP43 mice; at three months of age) of the same compound?
A: The value was 54%.

Q: What about the “increase in mean NCV (nerve conduction velocity) compared to the vehicle controlled group” value (Prp-TDP43 mice; at three months of age) of the same compound?
A: The value was 139%.

Q: What about the “increase in mean rotarod latency compared to the vehicle controlled group” value (Prp-TDP43 mice; at three months of age) of the same compound?
A: Its value is 99%.

Q: And the “increase in mean CAMP amplitude compared to the vehicle controlled group” value (Prp-TDP43 mice; at three months of age)?
A: Its value is 73%.

Q: And the “decrease in mean NfL concentration (plasma) compared to the vehicle controlled group” value (Prp-TDP43 mice; at two months of age)?
A: The value was 48%.

Q: And the “increase in mean rotarod latency compared to the vehicle controlled group” value (Prp-TDP43 mice; at two months of age)?
A: Its value is 76%.

Q: What about the “increase in mean CAMP amplitude compared to the vehicle controlled group” value (Prp-TDP43 mice; at two months of age) of the same compound?
A: Its value is 39%.
